We go through five compounds from publication PMC10136548, “Evaluation of 3D Human Intestinal Organoids as a Platform for EV-A71 Antiviral Drug Discovery” (Cells, 2023).

Where only a bound is given, the exact number is not on record here.

Series [1] can be described thus: Cytotoxicity (Cell Titer-Glo 3D viability) in non-infected HIOs. Type of series: cell-based. As to conditions: human; for CC50 at 72 h: non-infected HIOs, compounds 0.5–100 μM. As for the experimental part: HiPSCs were cultured in colonies on Matrigel (Corning Inc., Corning, NY, USA) in mTeSR1 medium (STEMCELL Technologies, Vancouver, BC, Canada). HIOs were differentiated from the hiPSC line using STEMdiff™ Intestinal Organoid Kit (STEMCELL Technologies) following the manufacturer’s instructions. Briefly, hiPSCs were plated and differentiated towards definitive endoderm (day 3), and then to mid-/hindgut cells (day 5–9 post seeding). The spheroids generated during the mid-/hindgut stage were embedded in Matrigel and grown in intestinal growth media for further differentiation and expansion into intestinal organoids (30–45 days post hiPSCs seeding). After maturation and for long-term culture, HIOs were passaged twice a week, and medium was changed if needed every two days.
(§1) Viability of HIOs and RD cells were determined by Cell Titer-Glo® 3D Cell Viability Assay (Promega, Fitchburg, WI, USA) and Cell Titer-Glo® Luminescent Cell Viability Assay (Promega), respectively. According to the manufacturer’s instructions, in a white 96-well plate (Greiner Bio-One, Stonehouse, UK), a 1:1 ratio of reagent and spent culture medium was added to the wells and mixed, and the luminescence signal was measured by CLARIO star plus (B M G Labtech Ltd., Aylesbury, UK).
(§2) For determination of compounds’ half maximal cytotoxic concentration (CC50), the non-infected HIOs/cells were treated with compounds (0.5–100 μM) for 72 h. The viability % was calculated as follows: (luminescence reading compound treated)/(luminescence reading DMSO control) × 100. The CC50 was calculated using non-linear regression (curve fit) with GraphPad Prism 9 (GraphPad, La Jolla, CA, USA). For determination of compounds half maximal effective concentration (EC50), the infected HIOs/cells were treated with DMSO (i.e., 0 µM) or compounds (0.15–40 μM) for 72 h. The CPE inhibition % was calculated as follows: (luminescence reading compound treated)/(luminescence reading DMSO control) × 100. The EC50 was calculated using non-linear regression (curve fit) with GraphPad Prism 9 (GraphPad).

Series [2] is described as follows: Cytotoxicity (Cell Titer-Glo viability) in non-infected RD cells. Type of series: cell-based. As to conditions: human, non-infected RD cells (ATCC CCL-136); for CC50 at 72 h: non-infected RD cells, compounds 0.5–100 μM. As for the experimental part: RD cells (ATCC, CCL-136, Manassas, VA, USA) were maintained in Dulbecco’s modified Eagle’s medium (DMEM) (Gibco, Thermo Fisher Scientific, Waltham, MA, USA) supplemented with 10% fetal bovine serum (FBS) (Gibco), 1% L-glutamine (Gibco), 1% sodium bicarbonate (Gibco), and 1% penicillin-streptomycin (Gibco). The cell culture was incubated at 37 °C under 5% CO2.
as §1, §2

Series [3] relates to EV-A71 BrCr strain. The experiment in a line: CPE inhibition in EV-A71-infected HIOs. Type of series: cell-based, Enterovirus A71. Conditions: for Selectivity Index (SI) = CC50/EC50: EC50 from CPE inhibition; for EC50: Enterovirus A, EVA71, EV-A71 MOI 0.1, 72 h, read-out: EC50 based on CPE inhibition; for EV-A71-induced CPE upon visual inspection: 1.25 μM, 72 hpi. On the procedure:
(§3) EV-A71 BrCr strain, a gift from Prof. F. van Kuppeveld (University of Utrecht, Utrecht, The Netherlands), was propagated in RD cells, cultured in 2% FBS-DMEM at 37 °C under 5% CO2. […] EV-A71 stock titer was determined by the 50% tissue culture infective dose (TCID50) assay (Reed and Muench, 1938).
(§4) For infection, HIOs were mechanically fragmented by vigorously pipetting using a P1000 to expose the apical surface to the virus inoculum as previously described. After virus inoculation (MOI = 0.01, 0.1, or 1) with EV-A71 or mock infection, the mixture was then incubated for 2 h at 37 °C for virus adsorption. After washing, the infected HIO fragments were mixed with 20% Matrigel-organoid growth medium and seeded at 10,000 cells/well in a 96-well plate pre-coated with 20% Matrigel-organoid growth medium at 50 µL/well.
as §1
as §2, with “For determination of compounds half maximal effective concentration (EC50), the infected HIOs/cells were treated with DMSO (i.e., 0 µM) or compounds (0.15–40 μM) for 72 h.” left out
(§5) Figure 4 Comparison of antiviral activity determined by CPE inhibition and viral RNA yield between HIOs and RD cells. (A) Viability of HIOs and RD cells was measured, using Cell Titer-Glo 3D or Cell Titer-Glo, after 72 h of EV-A71 infection at MOI 0.1 and incubation with compounds at indicated concentrations. CPE inhibition is calculated based on percentage of mock-infected control. The half maximal effective concentration (EC50) was calculated using Prism nonlinear regression (GraphPad Prism 9). (B) For viral RNA yield, HIOs and RD cells were infected with EV-A71 at an MOI of 0.1 and treated with compounds at indicated concentrations for 72 h before total culture of HIOs or supernatant of cells were collected by combining triplicates and determined by RT-qPCR. Viral RNA yield is calculated based on percentage of mock-infected control. The EC50 was calculated using Prism nonlinear regression (GraphPad Prism 9). (C) Brightfield images of mock control, infection treated with 1.25 µM rupintrivir, and infected control HIOs and RD cells at 72 hpi. All images were acquired using the same objective. Scale bar, […]. (D) Images represent mock-, EV-A71-infected HIOs (0.1 MOI), and EV-A71-infected HIOs (0.1 MOI) treated with rupintrivir (10 µM) at 48 hpi: DAPI (blue) for nucleus, phalloidin (red) for F-actin, and dsRNA (green). Scale bar, […]. Data are the mean ± SEM of at least six independent experiments; each carried out in triplicate.

For series [4], the system named is EV-A71 BrCr strain. The experiment in a line: CPE inhibition in EV-A71-infected RD cells. The class given is cell-based, Enterovirus A71. As to conditions: for Selectivity Index (SI) = CC50/EC50: EC50 from CPE inhibition; for EC50: Enterovirus A, EVA71, EV-A71 MOI 0.1, 72 h, read-out: EC50 based on CPE inhibition; for EV-A71-induced CPE upon visual inspection: 1.25 μM, 72 hpi. On the procedure: as §3
(§6) For RD cell line infection, 20,000 cells/well were cultured in 96-well plate at 37 °C for 24 h. To prepare virus inoculum (MOI = 0.01, 0.1, or 1), EV-A71 was diluted in 2% FBS-DMEM. Medium on cell monolayer was removed, and the inoculum was added for 1 h at 37 °C for virus adsorption. After washing, the monolayer was cultured in DMEM supplemented with 2% FBS.
as §1
as §2, with “For determination of compounds half maximal effective concentration (EC50), the infected HIOs/cells were treated with DMSO (i.e., 0 µM) or compounds (0.15–40 μM) for 72 h.” left out
as §5

Series [5] deals with EV-A71 BrCr strain. The experiment in a line: Viral RNA yield (RT-qPCR) in EV-A71-infected HIOs. Type of series: cell-based, Enterovirus A71. As to conditions: for Selectivity Index (SI) = CC50/EC50: EC50 from RNA yield; for EC50: Enterovirus A, EVA71, EV-A71 MOI 0.1, 72 h, RT-qPCR, read-out: EC50 based on RNA yield. On the procedure: as §3, §4
(§7) RNA was extracted from harvested samples using RNeasy Plus Mini Kit (Qiagen, Hilden, Germany). cDNA was created from the isolated RNA using High-Capacity cDNA Reverse Transcription Kit (ThermoFisher Scientific, Waltham, MA, USA) according to the manufacturer’s instructions.
(§8) For EV-A71 replication quantification, each 10 µL reaction mixture contained: 5 µL of Master Mix, 1.5 µL of RNase-free water, 0.5 µL each of gene-specific forward and reverse primer, and 3 µL of cDNA as template. The reaction plate was loaded in a LightCycler® 480 Real-Time PCR System (Roche) and ran at 95 °C for 3 min for pre-incubation, followed by 40 amplification cycles of 95 °C for 15 s and 60 °C for 60 s. Signal detection and measurements were taken in each amplification cycle. The EV-A71 viral loads in the samples were detected with the PanEV primer using a previously described customized primers probe mix (Integrated DNA Technologies, Coralville, IA, USA). The viral gene copy number was determined by absolute quantification and making a standard curve using custom gBlocks™ Gene Fragments (Integrated DNA Technologies) (5′-[…]-3′).
as §5

In series [6] the test system is EV-A71 BrCr strain. The experiment in a line: Viral RNA yield (RT-qPCR) in EV-A71-infected RD cells. Type of series: cell-based, Enterovirus A71. Conditions: for Selectivity Index (SI) = CC50/EC50: EC50 from RNA yield; for EC50: Enterovirus A, EVA71, EV-A71 MOI 0.1, 72 h, RT-qPCR, read-out: EC50 based on RNA yield. On the procedure:
as §3, §6, §7, §8, §5

For series [7], the system named is human rhinovirus (HRV). More on the design: method as in PMID 6113314, PMID 2984980. As to conditions: cited from earlier work.
Series [8] has as its system HRV. More on the design: method as in PMID 14638501. As to conditions: human; cited from earlier work.
Series [9] deals with HCV. More on the design: method as in PMID 29534607, PMID 20006612, PMID 19426125. Conditions: human, HCV infection, after 8 to 12 weeks of treatment; cited from earlier work.
Series [10] deals with enteroids. Conditions: cited from earlier work.

Consider `C[C@@]1(O)[C@H](O)[C@@H](CO)O[C@H]1n1ccc(N)nc1=O` [2′CMC, 2′-C-methylcytidine], for which the CC50 at 72 h in series [1] is 48000 ± 1000 nM; in series [2], more than 100000 nM. Besides, the “reduction of virus-induced CPE (maximum)” value in series [3] (ATP-based viability assay, plateau from 2.5 μM to 20 μM) was “up to 66 ± 17%”. Moreover, the “Selectivity Index (SI) = CC50/EC50” value in [3] is given as 48; in series [4] it was more than 76; in [5], 32; in series [6] it was more than 50. Also, the EC50 stood at 1000 ± 300 nM in series [3], 1300 ± 40 nM in series [4], 1500 ± 300 nM in series [5] and 2000 ± 400 nM in [6]. Further, the “protection from virus-induced CPE” value in [4] was “complete protection”.
`CC(C)S(=O)(=O)n1c(N)nc2ccc(/C(=N/O)c3ccccc3)cc21` [Enviroxime, enviroxime]: the viability at 72 h, 100 µM in series [1] (HIOs, 100 µM) stood at 0%; in [2] (RD cells, highest tested concentration 100 μM), 20%. Also, the figures for the CC50 at 72 h in [1] and in series [2] were 24000 ± 7000 nM and 28000 ± 2000 nM, respectively. In addition, the “EV-A71-induced CPE upon visual inspection” value in series [3] and in series [4] was “reduced” throughout. In addition, the “Selectivity Index (SI) = CC50/EC50” value stood at 60 in series [3], 467 in series [4], 17 in series [5] and 140 in [6]. Besides, the 50% effective concentration (EC50) in series [3] was 400 ± 200 nM; in series [4] it was 60 ± 1 nM; in [5], 1400 ± 300 nM; in series [6], 200 ± 40 nM. Further, the “side effects in clinical studies” value in series [7] (HRV infection) was “gastrointestinal side effects”. For the same compound, in [7], the “clinical effects against infection” value is on record as “no significant clinical effects”.
As for `CCOC(=O)/C=C/[C@H](C[C@@H]1CCNC1=O)NC(=O)[C@@H](CC(=O)[C@@H](NC(=O)c1cc(C)on1)C(C)C)Cc1ccc(F)cc1` [Rupintrivir, rupintrivir], the CC50 at 72 h in series [1] and in series [2] was more than 100000 nM throughout. For the same compound, the “EV-A71-induced CPE upon visual inspection” value in [3] and in [4] was “reduced” each time. The “Selectivity Index (SI) = CC50/EC50” value in series [3] is more than 667; in series [4], more than 2857; in series [5], more than 59; in series [6], more than 2857. The EC50 was less than 150 nM in series [3], less than 35 nM in series [4], 1700 ± 400 nM in [5] and less than 35 nM in series [6]. Further, the “protection from EV-A71-induced CPE” value in [3] (lowest concentration tested 0.15 μM) and in series [4] (lowest concentration tested 0.035 μM) was “full protection” each time. The “viral RNA levels” value in [6] (at all tested concentrations, MOI 0.1, 72 h) is reported as 10 ± 3%. Moreover, the “adverse side effects or treatment effects in phase II clinical studies” value in series [8] was “no adverse side effects or treatment effects”.
Turning to `CC(C)[C@H](N)C(=O)O[C@@H]1[C@@H](CO)O[C@@H](n2ccc(N)nc2=O)[C@]1(C)O` [Valopicitabine], in series [9], the “side effects during clinical study” value is recorded as “gastrointestinal side effects”.
Regarding `CCC(C)n1ncn(-c2ccc(N3CCN(c4ccc(OCC5COC(Cn6cncn6)(c6ccc(Cl)cc6Cl)O5)cc4)CC3)cc2)c1=O` (stereo not shown) [itraconazole], the “cytotoxicity in enteroids compared to cell lines” value in series [10] is “enhanced cytotoxicity”.
